Data reported in the supplement of paper PMC11208160.

Assay: recombinant barcode read abundance after kanamycin selection (control-corrected) (log10(CPM+1)); higher = more efficient recombination; sequences stand for … in AGTGCAGAGAAAATCGGCCAGTTTTCTCTGCCTGCAGTCCGCATGCCGT…AGATTTATGCAGCGGACTGCCTTTCTCCCAAAGTGATAAACCGGACAGTATCATGGACCGGTTTTCCCGGTAATCCGTATTTGCAAGGTTGGTTTCACT; site = the 11-nt target
In short: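 In E. coli, a pooled library matched targets to IS621 bridge RNA target-binding loops and was introduced alongside a donor plasmid. Cells went onto chloramphenicol/ampicillin/kanamycin with 0.1 mM IPTG or onto chloramphenicol/ampicillin LB agar as control, in duplicate. Recombination efficiency, from recombinant-junction barcodes as counts per million, is averaged and control-corrected. It is reported as log10(CPM+1).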
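Further: IS621 recombinase and bridge RNA in Escherichia coli cells.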

Sequence | recombinant barcode read abundance (log10)
TCCGTGTCTTGGGTTCTAACCTGTTGCCT (site TCCGTGTCTAG) | 2.24
TCCTAGTCTTGGGTTCTAACCTGTTGCAG (site GGTCCTCCTTC) | 0.0984
TCCTAGTCTTGGGTTCTAACCTGTTGCAG (site TCCTAGTCTCT) | 0.392
TCCTATCCTTGGGTTCTAACCTGTTGCGT (site TCCCATCCTAC) | 0.9
TCCTATCCTTGGGTTCTAACCTGTTGCGT (site TCCTATCCTAC) | 0.623
TCCTGAGCTTGGGTTCTAACCTGTTGCTG (site TCCTGAGCTCA) | 0.405
TCCTGAGCTTGGGTTCTAACCTGTTGCTG (site TCCTTAGCTCG) | 0.0103
TCCTTCACTTGGGTTCTAACCTGTTGCCT (site TCCTTCACTAG) | 0.285
TCCTTCACTTGGGTTCTAACCTGTTGCCT (site TCGTTCGCTAG) | 0.0665
TCGAACTCTTGGGTTCTAACCTGTTGCTT (site TCGAACTCTAA) | 0.339
TCGAACTCTTGGGTTCTAACCTGTTGCTT (site TCGCGCTCTAA) | 0.0841
TCGAAGTCTTGGGTTCTAACCTGTTGCTA (site AGATCTCCTAC) | 0.0769
TCGAAGTCTTGGGTTCTAACCTGTTGCTA (site TCGAAGTCTTA) | 0.272
TCGAGGCCTTGGGTTCTAACCTGTTGCTA (site CATCCATCTAT) | 0.162
TCGAGGCCTTGGGTTCTAACCTGTTGCTA (site TCGAGGCCTTA) | 0.0602
TCGAGTCCTTGGGTTCTAACCTGTTGCGG (site TCGAGTCCTCC) | 1.08
TCGAGTCCTTGGGTTCTAACCTGTTGCGG (site TTGAGGCCTCC) | 0
TCGAGTGCTTGGGTTCTAACCTGTTGCAG (site CTACTATCTAC) | 0.0294
TCGAGTGCTTGGGTTCTAACCTGTTGCAG (site TCGAGTGCTCT) | 0.263
TCGATCCCTTGGGTTCTAACCTGTTGCCT (site TCAATCCCTAG) | 0.194
TCGATCCCTTGGGTTCTAACCTGTTGCCT (site TCCATCCCTAG) | 0.144
TCGATCCCTTGGGTTCTAACCTGTTGCCT (site TCGATCCCTAG) | 0.577

Sequence | recombinant barcode read abundance (log10)
TCGATCCCTTGGGTTCTAACCTGTTGCCT (site TCTATCCCTAG) | 0.0661
TCGATTACTTGGGTTCTAACCTGTTGCCT (site TCGATCACTAG) | 0.269
TCGATTACTTGGGTTCTAACCTGTTGCCT (site TCGATTACTAG) | 0.123
TCGCACACTTGGGTTCTAACCTGTTGCCT (site ACGCACACTAG) | 0.276
TCGCACACTTGGGTTCTAACCTGTTGCCT (site CCGCACACTAG) | 0.324
TCGCACACTTGGGTTCTAACCTGTTGCCT (site GCGCACACTAG) | 0.814
TCGCACACTTGGGTTCTAACCTGTTGCCT (site TCGCACACTAG) | 0.622
TCGCAGACTTGGGTTCTAACCTGTTGCAC (site TCGCAGACTGT) | 0.0284
TCGCAGACTTGGGTTCTAACCTGTTGCAC (site TGGCCGACTGT) | 0.119
TCGCCTACTTGGGTTCTAACCTGTTGCCG (site TCCCCGACTCG) | 0.255
TCGCCTACTTGGGTTCTAACCTGTTGCCG (site TCGCCTACTCG) | 0.19
TCGCGCTCTTGGGTTCTAACCTGTTGCTT (site TCGAACTCTAA) | 0.233
TCGCGCTCTTGGGTTCTAACCTGTTGCTT (site TCGCGCTCTAA) | 0.419
TCGCTACCTTGGGTTCTAACCTGTTGCCT (site TCGCTACCTAG) | 0.109
TCGCTACCTTGGGTTCTAACCTGTTGCCT (site TGACTACCTAG) | 0.157
TCGGAATCTTGGGTTCTAACCTGTTGCCT (site GCGGAATCTAG) | 0
TCGGAATCTTGGGTTCTAACCTGTTGCCT (site TCGGAATCTAG) | 0.543
TCGGAGTCTTGGGTTCTAACCTGTTGCTT (site TCGGAGTCTAA) | 1.87
TCGGAGTCTTGGGTTCTAACCTGTTGCTT (site TCGGAGTCTAC) | 0.501
TCGGAGTCTTGGGTTCTAACCTGTTGCTT (site TCGGAGTCTAG) | 1.17
TCGGAGTCTTGGGTTCTAACCTGTTGCTT (site TCGGAGTCTAT) | 1.39
TCGGATGCTTGGGTTCTAACCTGTTGCAT (site GTTTCGACTTA) | 0.272

Sequence | recombinant barcode read abundance (log10)
TCGGATGCTTGGGTTCTAACCTGTTGCAT (site TCGGATGCTAT) | 0.417
TCGGCTCCTTGGGTTCTAACCTGTTGCCT (site TCGGCTCCTAG) | 0.712
TCGGCTCCTTGGGTTCTAACCTGTTGCCT (site TTGGCGCCTAG) | 0.149
TCGGGGTCTTGGGTTCTAACCTGTTGCCT (site ACGGGGTCTAG) | 1.23
TCGGGGTCTTGGGTTCTAACCTGTTGCCT (site CCGGGGTCTAG) | 0.543
TCGGGGTCTTGGGTTCTAACCTGTTGCCT (site GCGGGGTCTAG) | 0.0776
TCGGGGTCTTGGGTTCTAACCTGTTGCCT (site TCGGGGTCTAG) | 1.27
TCGGTTCCTTGGGTTCTAACCTGTTGCCT (site TAGGTTCCTAG) | 0.439
TCGGTTCCTTGGGTTCTAACCTGTTGCCT (site TCGGTTCCTAG) | 0.811
TCGTAGACTTGGGTTCTAACCTGTTGCTA (site GGTCGCCCTAC) | 0.16
TCGTAGACTTGGGTTCTAACCTGTTGCTA (site TCGTAGACTTA) | 0.215
TCGTCACCTTGGGTTCTAACCTGTTGCCT (site ACGTCACCTAG) | 0
TCGTCACCTTGGGTTCTAACCTGTTGCCT (site CCGTCACCTAG) | 0.332
TCGTCACCTTGGGTTCTAACCTGTTGCCT (site GCGTCACCTAG) | 0.139
TCGTCACCTTGGGTTCTAACCTGTTGCCT (site TCGTCACCTAG) | 0.348
TCGTCCTCTTGGGTTCTAACCTGTTGCCT (site TCGTCATCTAG) | 0.225
TCGTCCTCTTGGGTTCTAACCTGTTGCCT (site TCGTCCTCTAG) | 0.323
TCGTGCGCTTGGGTTCTAACCTGTTGCCT (site TCGTGCACTAG) | 0.177
TCGTGCGCTTGGGTTCTAACCTGTTGCCT (site TCGTGCCCTAG) | 0.087
TCGTGCGCTTGGGTTCTAACCTGTTGCCT (site TCGTGCGCTAG) | 0.0883
TCGTGCGCTTGGGTTCTAACCTGTTGCCT (site TCGTGCTCTAG) | 0
TCGTGTTCTTGGGTTCTAACCTGTTGCTA (site CCTTGTTCTTA) | 0.0623
